Results on 15 molecules are retold here after patent EP1005460B1, “PROSTAGLANDIN ENDOPEROXIDE H SYNTHASE BIOSYNTHESIS INHIBITORS” (ABBOTT LABORATORIES, priority 1997, dated 1999).

The target of assay [1] is T1, Cox-1 (Homo sapiens, UniProt P23219). The assay is described as follows: Recombinant human PGHS-1 (Cox-1) enzyme assay, PGE2 by EIA. Also noted: made in house; host or cells: baculovirus/Sf9 insect cells (microsomes). The assay is classed as biochemical. The following applies: microsomes, 60 min preincubation, 10 µM arachidonic acid, read-out: RHUCX1 Cox-1 percent inhibition. As for the experimental part:
(§1) To compare the mean responses of the treatment groups, analysis of variance was applied. Percent inhibition values were determined by comparing the individual treatment mean values to the mean of the control group. Linear regression was used to estimate IC50's/ED50's in appropriate assays.
(§2) EIA reagents for prostaglandin determination were purchased from Perseptive Diagnostics, (Cambridge, MA). PGE2 levels in lavage fluids were determined after the samples were dried under nitrogen and reconstituted with assay buffer. PGE2 levels in enzyme assays or cell culture media were measured against standards prepared in the same milieu. The immunoassays were conducted as recommended by the manufacturer. The EIA was conducted in 96 well microtiter plates (Nunc Roskilde, Denmark) and optical density was measured using a microplate reader (Vmax, Molecular Devices Corp., Menlo Park, CA).
(§3) Inhibition of prostaglandin biosynthesis in vitro was evaluated using recombinant human Cox-1 (r-hu Cox1) and Cox-2 (r-hu Cox2) enzyme assays. […] The reaction was allowed to run for 2.5 minutes at room temperature prior to quenching with HCl and neutralization with NaOH. PGE2 production in the presence and absence of the drug was determined by EIA analysis. The EIA was conducted in 96 well microtiter plates (Nunc Roskilde, Denmark) and optical density was measured using a microplate reader (Vmax, Molecular Devices Corp., Menlo Park, CA). EIA reagents for prostaglandin determination were purchased from Perseptive Diagnostics (Cambridge, MA). PGE2 levels were measured against standards prepared in the same milieu. The immunoassays were conducted as recommended by the manufacturer. The compounds are designated by the Example Number. […] Values for Cox-2 inhibition that are parenthetical indicate IC50 values.

The target of assay [2] is T1, Cox-1. The assay can be described thus: U937 cell assay, Cox-1 activity by EIA. The format is cell-based. Also noted: host or cells: U937 cells. Particulars: U937 cells. As for the experimental part: as §1, §2
(§4) Human amnionic WISH cells were grown to 80% confluence in 48 well plates. Following removal of the growth medium and two washings with Gey's Balanced Salt Solution, 5 ng IL-1 β/ml (UBI, Lake Placid, NY) was added to the cells with or without test compound in DMSO (0.01% v/v) in Neuman-Tytell Serumless Medium (GIBCO, Grand Island, NY). Following an 18 hour incubation to allow for the maximal induction of PGHS-2, the conditioned medium was removed and assayed for PGE2 activity by EIA analysis as described above.
U937 (ATCC, Rockville, MD) cells were grown in a similar fashion to the WISH cells. After incubation, the conditioned medium was removed and assayed for Cox-1 activity by EIA analysis as described above. U937 values indicate percent inhibition at the particular micromolar dose level while parenthetical values indicate IC50 values. Wish cell values indicate Cox-2 pecent inhibition at the particular micromolar dose level.

For assay [3], the target named is T2, Cox-2 (Homo sapiens, UniProt P35354).
T2 sequence (P35354 18-604): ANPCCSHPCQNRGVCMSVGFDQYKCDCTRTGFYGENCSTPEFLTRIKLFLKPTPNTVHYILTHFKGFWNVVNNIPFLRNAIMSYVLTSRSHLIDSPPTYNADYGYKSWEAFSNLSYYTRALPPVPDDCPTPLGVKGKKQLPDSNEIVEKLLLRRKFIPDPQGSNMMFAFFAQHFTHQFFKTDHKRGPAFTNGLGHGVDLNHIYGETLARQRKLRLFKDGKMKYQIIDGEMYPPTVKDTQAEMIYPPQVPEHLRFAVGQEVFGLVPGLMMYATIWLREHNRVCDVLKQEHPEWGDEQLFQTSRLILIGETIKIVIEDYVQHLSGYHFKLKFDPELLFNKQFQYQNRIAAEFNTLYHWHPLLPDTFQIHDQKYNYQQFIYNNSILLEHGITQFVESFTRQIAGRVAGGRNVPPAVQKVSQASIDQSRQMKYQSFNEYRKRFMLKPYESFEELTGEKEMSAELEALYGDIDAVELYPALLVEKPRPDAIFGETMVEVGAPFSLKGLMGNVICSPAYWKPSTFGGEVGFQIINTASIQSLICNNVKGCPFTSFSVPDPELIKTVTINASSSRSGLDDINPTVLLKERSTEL
The assay is described as follows: Recombinant human PGHS-2 (Cox-2) enzyme assay, PGE2 by EIA. More on the design: made in house; host or cells: baculovirus/Sf9 insect cells (microsomes). Particulars: microsomes, 60 min preincubation, 10 µM arachidonic acid; for IC50: read-out: RHUCX2 Cox-2 IC50 (parenthetical values); for inhibition at 0.1 µM: at 100 nM; for inhibition at 0.1 µM / inhibition at 1 µM: read-out: RHUCX2 Cox-2 percent inhibition; for inhibition at 1 µM: at 1000 nM. The format is biochemical. The protocol: as §1, §2, §3

Assay [4] relates to prostaglandin biosynthesis. The assay can be described thus: Rat carrageenan pleural inflammation model (CIP). The format is in vivo, Sprague-Dawley rats. Particulars: 10 milligrams per kilogram body weight, oral, 30 minutes before intrapleural carrageenan; lavage after four hours. As for the experimental part:
as §1, §2
Pleural inflammation was induced in male adrenalectomized Sprague-Dawley rats following the method of Vinegar et al., Fed. Proc. 1976, 35, 2447-2456. Animals were orally dosed with experimental compounds, in 0.2% HPMC, 30 minutes prior to the intrapleural injection of 2% lambda carrageenan (Sigma Chemical Co., St. Louis MO). Four hours later the animals were euthanized and the pleural cavities lavaged with ice cold saline. […] Eicosanoids were determined by EIA as described above. […]

The target of assay [5] is T2, Cox-2. The assay can be described thus: IL-1β induced PGE2 production in WISH cells. The format is cell-based. More on the design: endogenous in cells; host or cells: human amnionic WISH cells induced with IL-1β. The protocol: as §1, §2, §4
U937 (ATCC, Rockville, MD) cells were grown in a similar fashion to the WISH cells. After incubation, the conditioned medium was removed and assayed for Cox-1 activity by EIA analysis as described above. U937 values indicate percent inhibition at the particular micromolar dose level while parenthetical values indicate IC50 values. […]

Setting [6] is: U-937, read-out: U937 percent inhibition.

Like-named read-outs stand apart in the source and are kept apart here.

T1 sequence (P23219 24-599): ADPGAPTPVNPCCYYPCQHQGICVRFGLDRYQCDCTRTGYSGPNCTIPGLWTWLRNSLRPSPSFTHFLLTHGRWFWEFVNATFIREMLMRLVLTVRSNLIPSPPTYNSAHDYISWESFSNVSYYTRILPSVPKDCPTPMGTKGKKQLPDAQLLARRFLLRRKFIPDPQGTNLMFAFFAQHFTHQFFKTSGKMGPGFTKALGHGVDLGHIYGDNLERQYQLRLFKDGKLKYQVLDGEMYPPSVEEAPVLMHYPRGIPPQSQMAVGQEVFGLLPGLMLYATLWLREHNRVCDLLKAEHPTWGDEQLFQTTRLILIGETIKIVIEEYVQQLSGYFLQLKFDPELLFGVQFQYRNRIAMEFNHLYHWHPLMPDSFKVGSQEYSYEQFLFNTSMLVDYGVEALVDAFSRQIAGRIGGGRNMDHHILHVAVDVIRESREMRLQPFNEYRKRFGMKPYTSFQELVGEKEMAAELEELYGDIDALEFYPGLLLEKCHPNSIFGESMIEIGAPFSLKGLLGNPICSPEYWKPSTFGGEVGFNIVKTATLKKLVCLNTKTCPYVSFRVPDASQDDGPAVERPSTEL

For orientation: inhibition means the change of the read-out against control, counted positive when it falls. As a reminder, the IC50 is the concentration that inhibits the measured activity by half. Turning to `CS(=O)(=O)c1ccc(-c2cc(=O)n(Cc3ccccc3)nc2-c2ccc(F)cc2)cc1` [Example 7, 2-Benzyl-5-(4-methylsulfonylphenyl)-6-(4-fluorophenyl)-3(2H)-pyridazinone], in assay [1], the inhibition at 100 µM is 4%. Further, the results for the IC50 in assay [2] (read-out: U937 IC50 (parenthetical values)) and in assay [3] were 870 nM and 20 nM, respectively. In addition, the “CIP Inh @10mpk” value in assay [4] was 22%.

As for `CS(=O)(=O)c1ccc(-c2cc(=O)n(Cc3ccc(F)cc3)nc2-c2ccc(F)cc2)cc1` [Example 10, 2-(4-Fluorobenzyl)-5-(4-methylsulfonylphenyl)-6-(4-fluorophenyl)-3(2H)-pyridazinone], the inhibition at 100 µM in assay [1] amounted to 2%. Further, the inhibition at 10 µM in assay [2] (setting [6]) was found to be 62%. Further, the inhibition at 0.1 µM in assay [3] amounted to 65%.

As for `CCCCn1nc(-c2ccc(F)cc2)c(-c2ccc(S(C)(=O)=O)cc2)cc1=O` [Example 11, 2-(n-Butyl)-5-(4-methylsulfonylphenyl)-6-(4-fluorophenyl)-3(2H)-pyridazinone], the inhibition at 100 µM in assay [1] amounted to 19%. Further, the inhibition at 0.1 µM in assay [3] came out at 51%.

In the case of `CC(c1ccc(F)cc1)n1nc(-c2ccc(F)cc2)c(-c2ccc(S(C)(=O)=O)cc2)cc1=O` (stereo not drawn) [Example 12, 2-(4-Fluoro-α-methylbenzyl)-5-(4-methylsulfonylphenyl)-6-(4-fluorophenyl)-3(2H)-pyridazinone], the inhibition at 100 µM in assay [1] came out at 8%. For the same molecule, the IC50 in assay [3] turned out to be 740 nM.

On to `CCCCCn1nc(-c2ccc(F)cc2)c(-c2ccc(S(C)(=O)=O)cc2)cc1=O` [Example 14, 2-(n-Pentyl)-5-(4-methylsulfonylphenyl)-6-(4-fluorophenyl)-3(2H)-pyridazinone], for which, in assay [1], the inhibition at 100 µM was found to be 23%. Moreover, in assay [5] (at 0.00001 (head:)), the “Wish Cox-2 percent inhibition” value is on record as 34 @ 0.00001%. The inhibition at 1 µM in assay [2] (U-937, at 1 µM, read-out: U937 percent inhibition) was 42%. The inhibition at 0.1 µM in assay [3] amounted to 66%.

In the case of `CS(=O)(=O)c1ccc(-c2cc(=O)n(CC3CCCCC3)nc2-c2ccc(F)cc2)cc1` [Example 15, 2-Cyclohexylmethyl-5-(4-methylsulfonylphenyl)-6-(4-fluorophenyl)-3(2H)-pyridazinone], the inhibition at 100 µM in assay [1] is 52%. Besides, in assay [5] (at 0.001 (head:)), the “Wish Cox-2 percent inhibition” value is 43 @ 0.001%. For the same molecule, the inhibition at 0.01 µM in assay [2] (U-937, at 0.01 µM, read-out: U937 percent inhibition) was found to be 33%. Besides, in assay [3], the IC50 was found to be 5 nM.

Turning to `C#CCn1nc(-c2ccc(F)cc2)c(-c2ccc(S(C)(=O)=O)cc2)cc1=O` [Example 17, 2-Propargyl-5-(4-methylsulfonylphenyl)-6-(4-fluorophenyl)-3(2H)-pyridazinone], in assay [1], the inhibition at 100 µM was determined as 0%. Besides, the “Wish Cox-2 percent inhibition” value in assay [5] is given as 54 @ 1%. Moreover, the inhibition at 10 µM in assay [2] (setting [6]) worked out at 41%. In assay [3], the IC50 was found to be 850 nM.

As for `CS(=O)(=O)c1ccc(-c2cc(=O)n(C3CCCCC3)nc2-c2ccc(F)cc2)cc1` [Example 18, 2-Cyclohexyl-5-(4-methylsulfonylphenyl)-6-(4-fluorophenyl)-3(2H)-pyridazinone], in assay [1], the inhibition at 100 µM was determined as 16%. Also, the inhibition at 0.1 µM in assay [3] was found to be 49%.

For `CC#CCn1nc(-c2ccc(F)cc2)c(-c2ccc(S(C)(=O)=O)cc2)cc1=O` [Example 19, 2-(2-Butyn-1-yl)-5-(4-methylsulfonylphenyl)-6-(4-fluorophenyl)-3(2H)-pyridazinone], the inhibition at 100 µM in assay [1] worked out at 3%. For the same molecule, the inhibition at 1 µM in assay [3] stood at 66%.

Turning to `CS(=O)(=O)c1ccc(-c2cc(=O)n(CC3CCC3)nc2-c2ccc(F)cc2)cc1` [Example 20, 2-(Cyclobutylmethyl)-5-(4-methylsulfonylphenyl)-6-(4-fluorophenyl)-3(2H)-pyridazinone], the inhibition at 10 µM in assay [2] (setting [6]) stood at 60%.

For the molecule `CC(C)=CCn1nc(-c2ccc(F)cc2)c(-c2ccc(S(C)(=O)=O)cc2)cc1=O` [Example 21, 2-(3-Methylbuten-2-yl)-5-(4-methylsulfonylphenyl)-6-(4-fluorophenyl)-3(2H)-pyridazinone], the inhibition at 100 µM in assay [1] amounted to 62%. In assay [2] (setting [6]), the inhibition at 10 µM was 80%. For the same molecule, in assay [3], the inhibition at 0.1 µM came out at 92%.

For the molecule `CS(=O)(=O)c1ccc(-c2cc(=O)n(CC(F)(F)F)nc2-c2ccc(F)cc2)cc1` [Example 22, 2-(2,2,2-Trifluoroethyl)-5-(4-methylsulfonylphenyl)-6-(4-fluorophenyl)-3(2H)-pyridazinone], in assay [1], the inhibition at 100 µM is 0%. In assay [3], the inhibition at 1 µM amounted to 46%.

Consider `CS(=O)(=O)c1ccc(-c2cc(=O)n(CC3CC3)nc2-c2ccc(F)cc2)cc1` [Example 23, 2-(Cyclopropylmethyl)-5-(4-methylsulfonylphenyl)-6-(4-fluorophenyl)-3(2H)-pyridazinone], for which, in assay [1], the inhibition at 100 µM was 24%. Further, the “Wish Cox-2 percent inhibition” value in assay [5] was 62 @ 1%. Also, in assay [2] (setting [6]), the inhibition at 10 µM was determined as 30%. In assay [3], the IC50 came out at 250 nM. In assay [4], the “CIP Inh @10mpk” value is given as 41%.

With `CS(=O)(=O)c1ccc(-c2cc(=O)n(CC3CCCC3)nc2-c2ccc(F)cc2)cc1` [Example 24, 2-Cyclopentylmethyl-5-(4-methylsulfonylphenyl)-6-(4-fluorophenyl)-3(2H)-pyridazinone], in assay [1], the inhibition at 100 µM came to 23%. For the same molecule, in assay [3], the inhibition at 0.1 µM is 87%.

As to `CS(=O)(=O)c1ccc(-c2cc(=O)n(C3CCCC3)nc2-c2ccc(F)cc2)cc1` [Example 25, 2-Cyclopentyl-5-(4-methylsulfonylphenyl)-6-(4-fluorophenyl)-3(2H)-pyridazinone], in assay [1], the inhibition at 100 µM was 7%. Further, the inhibition at 0.1 µM in assay [3] stood at 42%.
